{"source": "patent US20240059740A1", "about": "“CYCLIC PEPTIDES AND USES THEREOF” (PRE[…] INC., priority 2020, published 2024)", "format_in_all_cases": "cell-based, human", "key": {"MMP-9": {"tested_on": "MMP-9", "experiment": "Gelatin zymography of conditioned media, MMP-9 production", "details": "compared to control containing no peptide", "source_text": "(§1) To assess whether the peptide SEQ ID NO.1 impacted MMP-2, MMP-9 and uPA production Zymography was used.\n(§2) Zymography is a technique for studying hydrolytic enzymes on the basis of substrate degradation. The in-gel zymography hydrolytic enzymes are separated by their molecular weights and detected by their ability to degrade a substrate. To detect the activity of MMP-2 and MMP-9 in various cell lines, conditioned media were collected in 3 independent experiments and analysed by gelatin zymography to quantify the level of gelatin digestion, which reflects MMP-2 and MMP-9 activity and production. Casein-Plasminogen zymography was conducted to determine the activity level of uPA in the conditioned medium from various cell lines. Active uPA converts plasminogen into plasmin which then digests casein, thus clear bands where digestion of casein have occurred indirectly represent uPA activity.\n(§3) The effect of the peptides on matrix protease production was tested using in-gel zymography. If the substrate included in the gel is gelatin, the enzymes detected are gelatinases: MMP-2 and MMP-9 (the latter is often of low abundance). If the gel contains casein and plasminogen, the enzymes tested are urokinase plasminogen activators (uPA); uPA is a therapeutic target in GBM.\n(§4) An equal amount of protein from each sample was mixed with 5 μL of Laemmli buffer (0.01% Bromophenol Blue (W/V), 5% SDS (W/V), 22% glycerol (V/V), 14% 0.5 M Tris pH 6.8 (V/V)) and loaded onto a 10% polyacrylamide gel co-polymerized with 1 mg/ml of gelatin, and electrophoresed at 120 V for 2 hours on ice. The gel was incubated in […] solution (Triton X-100 2.5% (V/V), 1 M Tris pH 7.5 5% (V/V), 0.5 M CaCl2 1% (W/V) at room temperature overnight on an orbital shaker. The gel was incubated in a second solution for 3 hours at 37° C. The gel was then stained with Coomassie blue solution (Coomassie blue 0.25%, methanol 45%, acetic acid 10%) and destained in methanol 25% (V/V), acetic acid 10% (V/V) destaining solution until clear bands against the dark background appeared around 72 kDa and 95 kDa, representing MMP-2 and MMP-9 activity, respectively. Clear bands around 50 kDa appeared against the dark background representing uPA activity. The gels were scanned, and uPA, MMP-2 and MMP-9 were quantified by densitometry using NIH Image J software.\nSEQ ID NO.1 was compared to a control containing no peptide to evaluate whether the peptide can reduce the production of matrix proteinases. A reduction in the production of matrix proteinases may be anticipated to result in comparatively less degradation of the extra-cellular matrix and so this could be one pathway by which the invasion potential could be reduced. […] This could be confirmed using a MMP-9 quantification kit, and altered production by a transcriptional mechanism can be unveiled using qRT-PCR."}, "uPA": {"tested_on": "uPA", "experiment": "Casein-plasminogen zymography of conditioned media, uPA production", "details": "for uPA production: compared to control containing no peptide", "source_text": "as §1, §2, §3, §4\nSEQ ID NO.1 was compared to a control containing no peptide to evaluate whether the peptide can reduce the production of matrix proteinases. […] This could be confirmed using a MMP-9 quantification kit, and altered production by a transcriptional mechanism can be unveiled using qRT-PCR."}, "uPA (PLAU) mRNA": {"tested_on": "uPA (PLAU) mRNA", "experiment": "Real time RT-PCR, uPA mRNA expression", "source_text": "(§5) The real-time reverse transcription polymerase chain reaction (RT-PCR) uses fluorescent reporter molecules to monitor the production of amplification products during each cycle of the PCR reaction. This combines the nucleic acid amplification and detection steps into one homogeneous assay and use of appropriate chemistries and data analysis eliminates the need for Southern blotting or DNA sequencing for amplicon identification. Its simplicity, specificity and sensitivity, together with its potential for high throughput and the ongoing introduction of new chemistries, more reliable instrumentation and improved protocols, has made real-time RT-PCR the benchmark technology for the detection and/or comparison of RNA levels.’\n(§6) In order to detect and quantify the expression of specific genes at mRNA level, real-time reverse transcriptase polymerase chain reaction (Real time RT-PCR) was performed. Total RNA of samples was isolated and purified using the PureLink® RNA Mini Kit (Life technologies). The concentration of total RNA was detected by NanoDrop 2000 Spectrophotometer (Thermo Scientific). The total RNA (2000 ng) was reverse transcribed using the High-Capacity cDNA Reverse Transcription Kit (Applied Biosystems™).\n(§7) The primers of target genes were TaqMan™ Gene Expression Assay for human PLAU (Hs01547054_m1), MMP-2 (Hs01548727_m1), MMP-9 (Hs00957562_m1), Snail-1 (Hs00195591_m1), Snail-2 (Hs00161904_m1), N-cadherin (Hs00983056_m1) and Twist (Hs01675818_s1). Relative quantification was done by reference to 18S ribosomal RNA (18S rRNA) and analysed using the comparative critical threshold (Ct) method\nThe mRNA expression of MMPs was measured using qRT-PCR. This was tested three independent times; the results are shown in Tables 9, 10 and 11 for U251, U87 cells and O81024 cells respectively. Results are reported as percent of the control cells (no treatment). Both MMP-2 and uPA were decreased in U251 by SEQ ID NO.1."}, "Twist mRNA": {"tested_on": "Twist mRNA", "experiment": "Real time RT-PCR, Twist mRNA expression", "source_text": "as §5, §6, §7\nThe mRNA expression of MMPs was measured using qRT-PCR. This was tested three independent times; the results are shown in Tables 9, 10 and 11 for U251, U87 cells and O81024 cells respectively. Results are reported as percent of the control cells (no treatment). Both MMP-2 and uPA were decreased in U251 by SEQ ID NO.1. […]"}, "[1]": {"details": "081024 cells, baseline expression level = 1"}, "[2]": {"details": "U87 cells, baseline expression level = 1"}}, "note": "Residues, ends and D or L forms follow the SMILES beside them."}
{"smiles": "CC(C)C[C@@H]1NC(=O)[C@H](C)NC(=O)[C@@H](NC(=O)[C@@H]2CCCN2C(=O)[C@@H](N)CC(C)C)CSSC(C)(C)CNC(=O)CC[C@@H](C(=O)N[C@@H](CCCNC(=N)N)C(N)=O)NC(=O)[C@H](CC(=O)O)NC(=O)[C@H](CC(N)=O)NC1=O", "note": "[SEQ ID NO: 1, Leu-Pro-c(SSA*-Ala-Leu-Asn-Asp-Glu)-Arg-NH2] (HELM PEPTIDE1{L.P.C.A.L.N.D.E.R.[am]}|CHEM1{[CC(C)(CN[*:2])S[*:1]]}$PEPTIDE1,CHEM1,3:R3-1:R1|PEPTIDE1,CHEM1,8:R3-1:R2$$$V2.0; N-terminus assumed)", "values": [{"measurement": "metalloprotease production, MMP-9", "setting": "MMP-9; 081024 cells", "result": 98.96}, {"measurement": "metalloprotease production, MMP-9", "setting": "MMP-9; U87 cells, listed as SEQ ID NO. 1", "result": 58.61}, {"measurement": "metalloprotease production, MMP-9", "setting": "MMP-9; U87 cells, listed as SEQ ID NO.1", "result": "decreased production"}, {"measurement": "metalloprotease production, MMP-9", "setting": "MMP-9; U251 cells, listed as SEQ ID NO. 1", "result": 63.4}, {"measurement": "metalloprotease production, MMP-9", "setting": "MMP-9; U251 cells, listed as SEQ ID NO.1", "result": "decreased production"}, {"measurement": "uPA production", "setting": "uPA; 081024 cells", "result": "96.43 ± 16.6"}, {"measurement": "uPA production", "setting": "uPA; U87 cells", "result": "89.03 ± 5.98"}, {"measurement": "uPA production", "setting": "uPA; U251 cells", "result": "79.92 ± 8.86"}, {"measurement": "production of uPA (overall, in words)", "setting": "uPA; overall, all cell lines, cell-conditioned media", "result": "did not decrease"}, {"measurement": "mRNA expression, uPA", "setting": "uPA (PLAU) mRNA; [1]", "result": 0.85}, {"measurement": "mRNA expression, uPA", "setting": "uPA (PLAU) mRNA; [2]", "result": 1.19}, {"measurement": "mRNA expression, uPA", "setting": "uPA (PLAU) mRNA; U251 cells, relative to control (no treatment), 18S rRNA reference, listed as SEQ ID NO. 1", "result": 0.63}, {"measurement": "mRNA expression, uPA", "setting": "uPA (PLAU) mRNA; U251 cells, relative to control (no treatment), 18S rRNA reference, listed as SEQ ID NO.1", "result": "decreased"}, {"measurement": "mRNA expression, Twist", "setting": "Twist mRNA; [1]", "result": 0.94}, {"measurement": "mRNA expression, Twist", "setting": "Twist mRNA; [2]", "result": 0.79}, {"measurement": "mRNA expression, Twist", "setting": "Twist mRNA; U251 cells, relative to control (no treatment)", "result": 0.91}]}
